Assay results published in patent publication US20240165282A1, “CONFORMATIONAL CONSTRAINED SOMATOSTATIN RECEPTOR 3 PEPTIDE LIGANDS AND THEIR CONJUGATES AND USES THEREOF” (STARGET PHARMA LTD., priority 2021, published 2024).
Where “and” joins values, the source holds several entries; their conditions need not be identical. Identical values can stand only once. *1 amine or outer side, *2 acyl side, *3 side chain or, on linkers, in order; H or OH if unused. Bridges are numbered along the chain shown (N, C = ends). [ ]: non-standard residue; d: D form. The star is where a group is joined. DOTA = O=C(O)CN1CCN(CC(=O)O)CCN(CC(=O)*)CCN(CC(=O)O)CC1; N(2-mercaptoethyl)Gly = O=C(CN(CCS[*:3])[*:1])[*:2]; GABA = NCCCC(=O)O

Legend:
insulin release = test: Glucose induced insulin release in rats; assay type: in vivo, Wistar rats; settings: S.C. 100-1000 microgram/kg, glucose stimulation
Experimental: In vivo determination of the pharmacodynamic properties of SSTR3 analogs was carried out in rats, according to known procedures (Afargan M. et al., 2001, Pless J. et al 1986).
Adult male Wistar rats weighing 200-220 g, were maintained on a constant light-dark cycle (light from 8:00 to 20:00 h), temperature (21±3° C.), and relative humidity (55±10%). Laboratory chow and tap water were available ad libitum. All animals in the study were fasted overnight, animals were placed in cages with metal mesh to prevent coprophagia with free access to water. On the day of the experiment, rats were anesthetized with Nembutal (IP, 60 mg/kg). Ten minutes after anesthesia, drugs were administrated S.C. at 100-1000 microgram/kg dose. At 10 minutes after drugs administration the stimulation of GH and glucagon release were carried out by i.v. bolus administration of 0.5 g/kg L-arginine, stimulation of insulin release was carried out in separate animal groups that received i.v. bolus of 0.5 g/kg of glucose. Terminal blood samples in EDTA were collected at 5 minutes after stimulation. Blood samples were and centrifuged immediately. Plasma was separated and kept frozen at −20° C. until assayed.
Rat growth hormone (rGH), glucagon and insulin levels were determined by commercial ELISA kits using the Millipore ELISA kits (Billerica, MA, USA). The ELISA kit for rat plasma GH, Millipore, Cat. No. EZRMGH-45K was performed according to the validated detection method of colorimetric sandwich ELISA protocol (Supriya S. et al., 2013). The ELISA kit for rat plasma insulin, Millipore Cat. No. MMEZRMI13K (Merck) was performed according to the validated detection method of fluorescent colorimetric protocol (Xu, P.Z. et al., 2012). The ELISA kit for rat plasma glucagon, Millipore, Cat. No. EZGLU-35 was performed according to the validated detection method of chemiluminescent sandwich ELISA protocol (Soyeon Y. et al., 2021).
Data analysis of rat plasma GH, glucagon and insulin levels was evaluated by the averaged plasma hormones levels of each group. […] Results are expressed as the mean±SEM.

SSTR5 = SSTR5 (Homo sapiens, UniProt P35346); test: Radioligand binding, displacement of 125I-Tyr11-SRIF-14; parameters: host or cells: Chem-1 (Rat ChemiSCREEN) cells, membrane preparation; settings: hSSTR-5
Source text: (§1) The binding to human cloned receptors SSTR-1, or SSTR-2 or SSTR-3 evaluated in stable and selective transfected CHO (Chinese Hamster Ovary) cells and binding to STSR-4 and SSTR-5 in stable and selective transfected Chem-1 (Rat ChemiSCREEN) cells. […] The binding reactions were filtered, the filters were washed, and the bound radioactivity was counted using a gamma counter.
(§2) The following table depicts the conditions of binding assay to each of the somatostatin receptors used for the evaluations of binding affinities of the tested peptides. All assays were performed by quantitation method of radioligand binding under 25° C. The vehicle was 1% DMSO, the incubation buffer was 25 mM HEPES, pH 7.4, 5 mM MgCl2, 1 mM CaCl2, 0.1% BSA. […] The significance criteria were >50% of max inhibition. […] This specific binding data used for calculation of Bmax values which is the concentration of each of the expressed cloned receptor in its transfected cell system.
(§3) The Results of IC50 values were determined by a non-linear, least squares regression analysis using MathIQ™ (ID Business Solutions Ltd., UK). […] The Hill coefficient (nH), defining the slope of the competitive binding curve, was calculated using MathIQ™.

hSSTR-4 = target: T1, hSSTR-4 (Homo sapiens, UniProt P31391); test: as above; settings: hSSTR-4
T1 construct: host or cells: Chem-1 (Rat ChemiSCREEN) cells, membrane preparation
Source text: as §1, §2, §3

SSTR1 = SSTR1 (Homo sapiens, UniProt P30872); test: as above; parameters: host or cells: CHO (Chinese Hamster Ovary) cells, membrane preparation; settings: hSSTR-1
Source text: as §1, §2, §3

SSTR2 = SSTR2 (Homo sapiens, UniProt P30874); test: as above; parameters: host or cells: CHO (Chinese Hamster Ovary) cells, membrane preparation; settings: hSSTR-2
Source text: as §1, §2, §3

SSTR3 = SSTR3 (Homo sapiens, UniProt P32745); test: as above; parameters: host or cells: CHO (Chinese Hamster Ovary) cells, membrane preparation; settings: for affinity and selectivity to SSTR3 (in words): binding data; for % displacement of [^125I] Tyr^11-SRIF-14: hSSTR-3
Source text: as §1, §2, §3

SSTR3-tGFP-U2OS cells = test: Cellular internalization of 177Lu radiolabeled compounds; assay type: cell-based, human; settings: 4 h
Experimental: In order to evaluate the cellular internalization of the ^177Lu radiolabeled SEQ ID NO: 6 in comparison to SEQ ID NO: 19 in SSTR3 transfected human cancer cell line to predict the tumor uptake of the radiolabeled compounds, the following example was performed.
Comparative SSTR3 receptor mediated internalization, was determined by incubation of the cultivate cancer cells with the ^177Lu radiolabeled compounds and determination of cellular uptake following washes of the cell culture. To evaluate the internalization as a receptor mediated process, the same experiments were performed in the presence of high concentration of cold SSTR3 ligands.
U2OS cells grow as a monolayer at +37° C. in a humidified atmosphere (5% CO2, 95% air). U2OS cancer cells are adherent to plastic flasks. For experimental use, these cancer cells are detached from the culture flask by a 5-minute treatment with trypsin-versene, in Hanks' medium without calcium or magnesium and neutralized by addition of complete culture medium.
The assay was performed as follows: Transfected human osteosarcoma cells SSTR3-tGFP-U2OS were plated in 6 well plate, 24 hours before the assay to have 80-90% confluency at the day of the assay. 30 minutes before the assay, medium was removed, and cells were washed with tempered Dulbecco's Phosphate Buffered Saline (DPBS, Sigma) and fresh medium (250 μL) is added. For total cellular uptake, 20 nM of the radioligand SEQ ID NO: 6 or SEQ ID NO: 19 were diluted in cell medium (250 μL) added to each well, in triplicate (final radioligand concentration: 10 nM). For non-specific binding, 20 μM (1000 in excess) of cold SEQ ID NO: 4 or cold SEQ ID NO: 6 or SEQ ID NO: 1 and 20 nM of ^177Lu-DOTA-PTR-58 radioligand solution in cell medium (250 μL) were added to each well, in triplicate (final cold peptide concentration: 10 μM; final radioligand concentration: 10 nM). The plates were incubated for 4 hours at +37° C. (air containing 5% CO2, humidified atmosphere). At the end of incubation, the plates were placed on ice to stop any internalization process. The medium, containing the free radioligand fraction, was collected and the cells were washed twice (2×750 μL) with ice-cold DPBS. The medium and the PBS washes were collected in the same vial from each well (final volume […]). The radioactivity of the cell pellets was counted by gamma counter and represents the cellular uptake as percentage of the administrated radioactivity. The radioactivity readouts of the wash-media were used for mass balance.

Sequence of SSTR3 (P32745 whole entry): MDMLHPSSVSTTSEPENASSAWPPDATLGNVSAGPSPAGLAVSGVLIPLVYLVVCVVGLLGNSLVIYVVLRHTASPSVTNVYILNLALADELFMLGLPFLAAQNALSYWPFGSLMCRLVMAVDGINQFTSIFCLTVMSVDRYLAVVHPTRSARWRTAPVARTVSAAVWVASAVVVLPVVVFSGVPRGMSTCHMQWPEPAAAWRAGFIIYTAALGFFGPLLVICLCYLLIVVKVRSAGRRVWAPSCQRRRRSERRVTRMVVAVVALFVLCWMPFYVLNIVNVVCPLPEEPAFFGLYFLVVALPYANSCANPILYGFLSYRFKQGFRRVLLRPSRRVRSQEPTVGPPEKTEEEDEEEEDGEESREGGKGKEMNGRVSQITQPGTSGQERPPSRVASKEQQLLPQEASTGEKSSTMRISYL
T1 sequence (P31391 whole entry): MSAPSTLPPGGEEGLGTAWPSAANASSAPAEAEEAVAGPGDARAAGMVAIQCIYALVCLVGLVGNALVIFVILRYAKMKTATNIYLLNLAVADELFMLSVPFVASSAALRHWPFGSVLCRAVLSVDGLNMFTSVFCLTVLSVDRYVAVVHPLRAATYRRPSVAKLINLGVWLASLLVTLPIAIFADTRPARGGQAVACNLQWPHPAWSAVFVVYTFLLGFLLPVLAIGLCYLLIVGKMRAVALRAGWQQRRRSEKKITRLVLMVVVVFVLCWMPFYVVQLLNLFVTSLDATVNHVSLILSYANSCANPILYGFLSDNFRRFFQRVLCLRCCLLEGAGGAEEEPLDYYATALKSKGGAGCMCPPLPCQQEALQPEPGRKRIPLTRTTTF
Sequence of SSTR2 (P30874 whole entry): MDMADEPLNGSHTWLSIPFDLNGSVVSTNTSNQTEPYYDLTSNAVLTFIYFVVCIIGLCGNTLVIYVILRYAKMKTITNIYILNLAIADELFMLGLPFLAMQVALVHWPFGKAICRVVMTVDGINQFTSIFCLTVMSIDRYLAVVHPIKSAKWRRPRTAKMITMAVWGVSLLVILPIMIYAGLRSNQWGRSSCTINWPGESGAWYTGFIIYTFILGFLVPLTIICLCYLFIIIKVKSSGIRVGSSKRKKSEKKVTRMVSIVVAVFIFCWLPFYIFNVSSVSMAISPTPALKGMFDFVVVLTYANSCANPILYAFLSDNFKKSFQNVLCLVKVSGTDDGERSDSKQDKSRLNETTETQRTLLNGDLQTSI
Sequence of SSTR1 (P30872 whole entry): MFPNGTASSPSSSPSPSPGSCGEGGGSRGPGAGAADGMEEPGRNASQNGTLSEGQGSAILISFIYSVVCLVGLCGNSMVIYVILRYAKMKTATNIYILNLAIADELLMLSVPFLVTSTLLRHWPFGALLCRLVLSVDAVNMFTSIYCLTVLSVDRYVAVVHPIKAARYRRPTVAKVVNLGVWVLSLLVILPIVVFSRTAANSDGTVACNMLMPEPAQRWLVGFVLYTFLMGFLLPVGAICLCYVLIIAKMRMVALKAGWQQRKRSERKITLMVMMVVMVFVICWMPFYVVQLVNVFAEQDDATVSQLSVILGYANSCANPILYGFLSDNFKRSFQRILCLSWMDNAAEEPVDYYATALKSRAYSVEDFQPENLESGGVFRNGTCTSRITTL
Sequence of SSTR5 (P35346 whole entry): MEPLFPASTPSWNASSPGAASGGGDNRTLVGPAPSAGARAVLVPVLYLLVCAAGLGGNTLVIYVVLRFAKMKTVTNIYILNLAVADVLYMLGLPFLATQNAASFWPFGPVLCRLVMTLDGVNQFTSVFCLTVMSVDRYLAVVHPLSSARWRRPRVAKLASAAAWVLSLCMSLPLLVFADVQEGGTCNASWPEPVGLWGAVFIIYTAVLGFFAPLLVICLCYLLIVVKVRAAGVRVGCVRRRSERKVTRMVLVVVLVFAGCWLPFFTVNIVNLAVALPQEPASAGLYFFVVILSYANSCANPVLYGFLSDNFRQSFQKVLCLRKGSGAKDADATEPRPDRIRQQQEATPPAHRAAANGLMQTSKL

Compound | effect on insulin release (insulin release) | % displacement of [^125I] Tyr^11-SRIF-14 (SSTR5; at 1 nM (in brackets)) | % displacement of [^125I] Tyr^11-SRIF-14 (SSTR5; at 10 nM) | % displacement of [^125I] Tyr^11-SRIF-14 (hSSTR-4; at 1 nM (in brackets)) | % displacement of [^125I] Tyr^11-SRIF-14 (hSSTR-4; at 10 nM) | % displacement of [^125I] Tyr^11-SRIF-14 (SSTR1; at 1 nM (in brackets)) [%] | % displacement of [^125I] Tyr^11-SRIF-14 (SSTR1; at 10 nM) [%] | % displacement of [^125I] Tyr^11-SRIF-14 (SSTR2; at 1 nM (in brackets)) | % displacement of [^125I] Tyr^11-SRIF-14 (SSTR2; at 10 nM) | affinity to SSTR3 (SSTR3) [nM] | affinity and selectivity to SSTR3 (in words) (SSTR3) | % displacement of [^125I] Tyr^11-SRIF-14 (SSTR3; at 1 nM (in brackets)) [%] | % displacement of [^125I] Tyr^11-SRIF-14 (SSTR3; at 10 nM) [%] | % Total cellular uptake (SSTR3-tGFP-U2OS cells; 177Lu radiolabeled, 10 nM, no blocking) | % Total cellular uptake (SSTR3-tGFP-U2OS cells; 177Lu radiolabeled, 10 nM, no blocking, listed as 177Lu radiolabeled SEQ ID NO. 6) [%] | % Total cellular uptake (SSTR3-tGFP-U2OS cells; + SEQ ID NO: 4 (cold 69/71Ga for blocking)) [%] | % Total cellular uptake (SSTR3-tGFP-U2OS cells; + SEQ ID NO: 6 (cold 175Lu for blocking)) [%]
C[C@@H](O)[C@@H]1NC(=O)[C@H](CCCCN)NC(=O)[C@@H](Cc2c[nH]c3ccccc23)NC(=O)[C@H](Cc2ccccc2)NC(=O)[C@@H](NC(=O)[C@H](N)Cc2ccccc2)CSSC[C@@H](C(=O)N[C@H](CO)[C@@H](C)O)NC1=O [octreotide, reference compound] | exhibits anti-secretagogue effect of pancreatic release of insulin | – | – | – | – | – | – | – | – | – | – | – | – | – | – | – | –
Niraparib-CO(CH2)3CO-D-Phe^1-Arg^2-Cys^3-Phe^4-D-Trp^5-Lys^6-Thr^7-Phe^8-NTEG^9-NH2 cyclo 3-9 [SEQ ID NO: 28] | – | 0(0) % | 0(0) % | 0(0) % | 0(0) % | 12 | 23 | 0(0) % | 0(0) % | ≤ 10 | the same selectivity to SSTR3 as SEQ ID NO: 1 | 28 | 79 | – | – | – | –
^177Lu -SEQ ID NO: 6 ({DOTA}-[dF]RCF[dW]KTF[N(2-mercaptoethyl)Gly]-NH2; disulfide 3-9; also: 177Lu complex of DOTA) | – | – | – | – | – | – | – | – | – | – | – | – | – | 15.5 ± 0.28% and 22.1 ± 0.5% | 22 | 0.9 ± 0.02 | 0.6 ± 0.02
gallium labelled DOTA-GABA-D-Phe^1-Arg^2-Cys^3-Phe^4-D-Trp^5-Lys^6-Thr^7-Phe^8-NTEG^9-NH2 (cyclo 3-9) ({DOTA-GABA}-[dF]RCF[dW]KTF[N(2-mercaptoethyl)Gly]-NH2; disulfide 3-9; also: gallium complex of DOTA) [SEQ ID NO: 8] | – | 0% | 15% | 5% | 4% | 0 | 10 | 0% | 10% | – | maintains the same affinity and selectivity to SSTR3 as SEQ ID NO. 1, and SEQ ID NO. 3-7 | 61 | 88 | – | – | – | –
